Among the data in patent publication US7678812B2, “Aminotetralin-derived urea modulators of vanilloid VR1 receptor” (Janssen Pharmaceutica NV, priority 2002, dated 2010) are Ki values, retold here.

Where only a bound is given, the exact number is not on record here.

hVR1 receptors, sequence (Q8NER1 whole entry): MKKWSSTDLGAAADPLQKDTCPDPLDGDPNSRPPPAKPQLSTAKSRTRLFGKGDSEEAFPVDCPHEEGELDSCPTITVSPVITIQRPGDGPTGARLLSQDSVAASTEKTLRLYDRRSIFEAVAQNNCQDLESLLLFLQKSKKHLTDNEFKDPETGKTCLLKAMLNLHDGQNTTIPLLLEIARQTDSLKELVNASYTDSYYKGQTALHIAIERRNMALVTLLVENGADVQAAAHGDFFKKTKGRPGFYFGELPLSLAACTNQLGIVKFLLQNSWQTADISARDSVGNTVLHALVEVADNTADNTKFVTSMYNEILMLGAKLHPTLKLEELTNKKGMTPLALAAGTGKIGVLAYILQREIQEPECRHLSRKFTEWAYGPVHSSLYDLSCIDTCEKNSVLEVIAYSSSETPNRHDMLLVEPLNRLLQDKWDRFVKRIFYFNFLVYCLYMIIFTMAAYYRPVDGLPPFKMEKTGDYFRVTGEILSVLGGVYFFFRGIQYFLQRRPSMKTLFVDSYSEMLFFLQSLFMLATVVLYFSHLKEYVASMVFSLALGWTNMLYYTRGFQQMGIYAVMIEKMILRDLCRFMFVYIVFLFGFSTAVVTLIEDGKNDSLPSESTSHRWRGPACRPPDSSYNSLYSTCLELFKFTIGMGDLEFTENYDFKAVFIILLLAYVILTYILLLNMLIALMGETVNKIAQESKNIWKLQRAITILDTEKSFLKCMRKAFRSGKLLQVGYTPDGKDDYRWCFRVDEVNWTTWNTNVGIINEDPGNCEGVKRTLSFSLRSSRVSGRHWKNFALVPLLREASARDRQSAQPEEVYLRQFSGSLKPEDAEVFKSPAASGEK

The target of this experiment is hVR1 receptors (Homo sapiens, UniProt Q8NER1). The experiment is described as follows: [3H] RTX binding assay, human VR1. More on the design: expressed in transfected cells; host or cells: HEK293 (membrane preparation). As to conditions: inhibition of [3H] RTX binding, membranes of HEK293 cells transfected with human VR1. As to the method:
Compounds of the present invention were tested for their ability to inhibit the binding of [^3H] RTX to hVR1 receptors in a [^3H] RTX binding assay as previously described (Zhang, Sui-Po. Improved ligand binding assays for vanilloid receptors. PCT Int. Appl. (2002), 29 pp. CODEN: PIXXD2 WO 0233411 A1 20020425 AN 2002:315209; Grant, Elfrida R.; Dubin, Adrienne E.; Zhang, Sui-Po; Zivin, Robert A.; Zhong, Zhong Simultaneous intracellular calcium and sodium flux imaging in human vanilloid receptor 1 (VR1)-transfected human embryonic kidney cells: a method to resolve ionic dependence of VR1-mediated cell death. Journal of Pharmacology and Experimental Therapeutics (2002), 300(1), 9-17.)
HEK293 cells were transfected with human VR1 vanilloid receptors and washed with Hank's Balanced Salt Solution, dissociated with cell dissociation buffer (Sigma), and then centrifuged at 1000×g for 5 min. Cell pellets were homogenized in cold 20 mM HEPES buffer, pH 7.4, containing 5.8 mM NaCl, 320 mM sucrose, 2 mM MgCl2, 0.75 CaCl2 and 5 mM KCl and centrifuged at 1000×g for 15 min. The resultant supernate was then centrifuged at 40000×g for 15 min. The pelleted membranes were kept in an −80° C. freezer.
Approximately 120 μg protein/ml from membranes were incubated with indicated concentrations of [^3H] RTX in 0.5 ml of the HEPES buffer (pH 7.4) containing 0.25 mg/mL fatty acid-free bovine serum albumin at 37° C. for 60 min. The reaction mixture was then cooled to 4° C., 0.1 mg α1-acid glycoprotein added to each sample and incubated at 4° C. for 15 min. The samples were centrifuged at 18500×g for 15 min. The tip of the microcentrifuge tube containing the pellet was cut off. Bound radioactivity was quantified by scintillation counting. Non-specific binding was tested in the presence of 200 nM unlabeled RTX.
Consider `O=C(Nc1cccc2cnccc12)NC1CCc2cc(F)ccc2C1` (stereo not drawn) [Compound 37], for which the affinity, expressed as Ki, was 24.9 nM.

Take `O=C(Nc1cccc2cnccc12)NC1CCc2cc(F)ccc2C1CC1CC1` (stereo not drawn) [Compound 71, 1-(1-cyclopropylmethyl-6-fluoro-1,2,3,4-tetrahydronaphthalene-2-yl)-3-isoquinolin-5-yl-urea]: the inhibition constant (Ki) (as a rule, a measure of affinity in units of concentration, obtained from inhibition or displacement) was determined as 0.84 nM.

Take `COc1ccc2c(c1)CCC(NC(=O)Nc1cccc3cnccc13)C2Cc1ccc(Cl)cc1` (stereo not drawn) [Compound 50]: the inhibition constant (Ki) is 1.8 nM.

Compound `COc1ccc2c(c1)CCC(NC(=S)NCc1ccc(O)c(OC)c1)C2Cc1c[nH]cn1` (stereo not drawn) [Compound 8] registered a Ki above 10000 nM.

The compound `COc1ccc2c(c1)CCC(NC(=O)Nc1cccc3cnccc13)C2Cc1c(F)cccc1F` (stereo not drawn) [Compound 77] displayed a Ki of 6.26 nM.

`COc1cc2c(cc1OC)C(Cc1ccccc1)C(NC(=O)Nc1cccc3cnccc13)CC2` (stereo not drawn) [Compound 48] had a Ki of 19.3 nM.

Regarding `COc1cc2c(cc1OC)C(Cc1ccccc1)C(NC(=O)Nc1cccc3cnccc13)CC2` (stereo not drawn) [Compound 40], the Ki is 29.6 nM.

Compound `O=C(Nc1cccc2cnccc12)N[C@H]1CCc2cc(Br)ccc2[C@H]1Cc1ccccc1` (relative stereo) [Compound 39] yielded an inhibitory constant (Ki) of 0.89 nM.

`COc1ccc2c(c1)CCC(NC(=O)NCCc1ccc(OC)c(OC)c1)C2Cc1ccccc1` (stereo not drawn) [Compound 13] returned a Ki of 3600 nM.

Compound `COc1ccc2c(c1)CCC(NC(=O)Nc1cccc3cnccc13)C2Cc1cccc(C(F)(F)F)c1` (stereo not drawn) [Compound 54] displayed an inhibitory constant (Ki) of 2.04 nM.

`COc1ccc2c(c1)CCC(NC(=O)Nc1cccc3cnccc13)C2Cc1ccc(C#N)cc1` (stereo not drawn) [Compound 63] gave a Ki of 16.5 nM.

Turning to `COc1ccc2c(c1)CCC(NC(=S)NCc1ccc(O)c(OC)c1)C2Cc1ccccc1` (stereo not drawn) [Compound 3, 1-(1-Benzyl-6-methoxy-1,2,3,4-tetrahydro-naphthalen-2-yl)-3-(4-hydroxy-3-methoxy-benzyl)-thiourea], affinity was put at a Ki of 98.9 nM.

Take `COc1ccc(CC2c3ccc(OC)cc3CCC2NC(=O)Nc2cccc3cnccc23)cc1` (stereo not drawn) [Compound 72]: the Ki came to 7.52 nM.

The compound `O=C(Nc1cccc2cnccc12)NC1CCc2ccc(Cl)cc2C1Cc1ccccc1` (stereo not drawn) [Compound 41] showed a Ki of 4.58 nM.

Consider `O=C(Nc1cccc2c(Cl)nc(Cl)cc12)NC1CCc2cc(F)ccc2C1Cc1ccccc1` (stereo not drawn) [Compound 109], for which the affinity, expressed as Ki, was 29.2 nM.

In turn, `COc1ccc2c(c1)CCC(NC(=O)Nc1cccc3cnccc13)C2Cc1cccnc1` (stereo not drawn) [Compound 45] had an inhibition constant Ki of 1540 nM.

Consider `O=C(Nc1cccc2cnccc12)NC1CCc2cc(F)c(F)cc2C1Cc1ccccc1` (stereo not drawn) [Compound 66], for which the affinity corresponds to a Ki of 1.82 nM.

Compound `O=C(Nc1cccc2c[n+]([O-])ccc12)NC1CCc2cc(F)ccc2C1Cc1ccccc1` (single isomer, unassigned) [Compound 97] displayed an inhibition constant Ki of 45.4 nM.

In turn, `COc1ccc2c(c1)CCC(NC(=O)Nc1cccc3cnccc13)C2Cc1cccnc1` (stereo not drawn) [Compound 47] came in with an inhibition constant (Ki) of 1030 nM.

On to `O=C(NCc1cccc2cnccc12)NC1CCc2cc(F)ccc2C1Cc1ccccc1` (stereo not drawn) [Compound 60, 1-(1-Benzyl-6-fluoro-1,2,3,4-tetrahydronaphthalene-2-yl)-3-isoquinolin-5-ylmethyl-urea], for which the affinity corresponds to a Ki of 4.99 nM.

`O=C(Nc1cccc2cncc(Cl)c12)N[C@H]1CCc2cc(F)ccc2[C@H]1Cc1ccccc1` (relative stereo) [Compound 98] yielded a Ki of 2730 nM.

`COc1ccc2c(c1)CC[C@@H](NC(=O)Nc1cccc3cnccc13)[C@@H]2Cc1cccc(Cl)c1` (relative stereo) [Compound 46] yielded a Ki of 8.81 nM.

Compound `COc1ccc2c(c1)CC[C@@H](NC(=O)Nc1cccc3cnccc13)[C@@H]2Cc1ccccc1Cl` (relative stereo) [Compound 52] yielded a Ki of 12.3 nM.

With `COc1ccc2c(c1)CC[C@@H](NC(=O)Nc1cccc3cnccc13)[C@H]2Cc1ccccc1Cl` (relative stereo) [Compound 49], the inhibitory constant (Ki) was found to be 2.66 nM.

As to `O=C(Nc1cccc2ccc(O)cc12)NC1CCc2cc(F)ccc2C1Cc1ccccc1` (stereo not drawn) [Compound 67, 1-(1-Benzyl-6-fluoro-1,2,3,4-tetrahydronaphthalene-2-yl)-3-(7-hydroxy-naphthalen-1-yl)-urea], the inhibition constant Ki was 1.44 nM.

Turning to `Cc1cc2c(NC(=O)NC3CCc4cc(F)ccc4C3Cc3ccccc3)cccc2cn1` (single isomer, unassigned) [Compound 81b], the affinity, expressed as Ki, was 5.25 nM.

In turn, `O=C(Nc1cccc2cnccc12)NC1CCc2cc(Cl)ccc2C1Cc1ccccc1` (stereo not drawn) [Compound 86] displayed a Ki of 1.7 nM.

In turn, `COc1ccc2c(c1)CCC(NC(=O)Nc1cccc3cnccc13)C2` (stereo not drawn) [Compound 51] displayed an inhibitory constant (Ki) of 24 nM.

`O=C(Nc1cccc2cnccc12)NC1CCc2cc(Br)ccc2C1` (stereo not drawn) [Compound 58] showed a Ki of 2.62 nM.

For the compound `COc1ccc2c(c1)CCC(NC(=O)NCc1ccc(OC)c(OC)c1)C2Cc1ccccc1` (stereo not drawn) [Compound 10], the inhibition constant Ki is 13000 nM.

`C=CCC1c2ccc(F)cc2CCC1NC(=O)Nc1cccc2cnccc12` (stereo not drawn) [Compound 69] came in with a Ki of 2.19 nM.

The compound `O=C(Nc1cccc2cnccc12)NC1CCc2cc(O)ccc2C1Cc1ccccc1` (stereo not drawn) [Compound 56] came in with an inhibition constant Ki of 277 nM.

`O=C(Nc1cccc2cnccc12)NC1CCc2ccccc2C1Cc1ccccc1` (stereo not drawn) [Compound 43] returned a Ki of 3.66 nM.

In turn, `Cc1cc2c(NC(=O)NC3CCc4cc(F)ccc4C3Cc3ccccc3)cccc2cn1` (single isomer, unassigned) [Compound 81a] gave an inhibition constant Ki of 1.12 nM.

For the compound `COc1ccc2c(c1)CCC(NC(=O)Nc1cccc3cnccc13)C2Cc1ccc(C(F)(F)F)cc1` (stereo not drawn) [Compound 55], the Ki worked out at 1.55 nM.

The compound `COc1ccc2c(c1)CCC(NC(=O)NCc1ccc3c(c1)OCO3)C2Cc1ccccc1` (stereo not drawn) [Compound 9] gave an inhibition constant (Ki) above 10000 nM.

Consider `COc1ccc2c(c1)CCC(NC(=O)Nc1cccc3cnccc13)C2Cc1ccc(Br)cc1` (stereo not drawn) [Compound 64], for which the affinity, expressed as Ki, was 1.28 nM.

`O=C(Nc1cccc2c(Cl)nc(Cl)cc12)NC1CCc2cc(F)ccc2C1Cc1ccccc1` (stereo not drawn) [Compound 108] returned a Ki of 186 nM.

In turn, `COc1ccc2c(c1)CCC(NC(=S)NCc1ccc(OC)c(OC)c1)C2Cc1ccccc1` (stereo not drawn) [Compound 15] had a Ki of 3110 nM.

The compound `COc1ccc2c(c1)CC[C@@H](NC(=O)Nc1cccc3cnccc13)[C@H]2Cc1cccc(Cl)c1` (relative stereo) [Compound 44] came in with an inhibitory constant (Ki) of 1.96 nM.

`COc1ccc2c(c1)CCC(NC(=O)Nc1cccc3cnccc13)C2Cc1ccccc1OC` (stereo not drawn) [Compound 73] gave a Ki of 53.4 nM.

Regarding `COc1ccc2c(c1)CCC(NC(=O)Nc1cccc3ccc(O)cc13)C2Cc1ccccc1` (stereo not drawn) [Compound 35], the inhibition constant Ki amounted to 9.64 nM.

`COc1ccc2c(c1)CCC(NC(=S)NCc1ccc3c(c1)OCO3)C2Cc1ccccc1` (stereo not drawn) [Compound 14]: the Ki was above 10000 nM.

`COc1ccc2c(c1)CCC(NC(=O)NCc1ccc(N(C)C3CCCCC3)cc1)C2Cc1ccccc1` (stereo not drawn) [Compound 25] returned an inhibition constant (Ki) of 70900 nM.

With `COc1ccc2c(c1)CCC(NC(=S)NCc1ccc(O)c(OC)c1)C2Cc1cccnc1` (stereo not drawn) [Compound 6], the Ki was above 10000 nM.

In turn, `O=C(Nc1cccc2cnccc12)NC1CCc2ccc(Cl)cc2C1` (stereo not drawn) [Compound 61] returned a Ki of 3.42 nM.

`O=C(Nc1cccc2cncc(Cl)c12)NC1CCc2cc(F)ccc2C1Cc1ccccc1` (stereo not drawn) [Compound 99] came in with a Ki of 2700 nM.

In turn, `O=C(Nc1cccc2cnccc12)NC1CCc2cc(F)ccc2C1Cc1cccs1` (stereo not drawn) [Compound 76] showed a Ki of 3.81 nM.

On to `O=C(Nc1cccc2cnccc12)NC1CCc2cc(Cl)ccc2C1` (stereo not drawn) [Compound 59], for which affinity was put at a Ki of 2.6 nM.

For the compound `COc1ccc2c(c1)CCC(NC(=O)Nc1cccc3cnccc13)C2Cc1ccc(OCc2ccccc2)cc1` (stereo not drawn) [Compound 74], the inhibitory constant (Ki) came out at 11.3 nM.

As to `COCOc1ccc(CNC(=S)NC2CCc3ccccc3C2Cc2ccccc2)cc1OC` (stereo not drawn) [Compound 21], the affinity, expressed as Ki, was 520 nM.

In the case of `O=C(Nc1cccc2c(Cl)nccc12)NC1CCc2cc(F)ccc2C1Cc1ccccc1` (single isomer, unassigned) [Compound 104], the Ki turned out to be 32.3 nM.

Compound `COc1ccc2c(c1)CCC(NC(=O)Nc1cccc3cnccc13)C2Cc1ccccc1C(F)(F)F` (stereo not drawn) [Compound 53] displayed an inhibition constant Ki of 0.48 nM.

Compound `COc1ccc2c(c1)CCC(NC(=O)NCc1ccc(O)c(OC)c1)C2Cc1ccccc1` (stereo not drawn) [Compound 19] had an inhibitory constant (Ki) of 258 nM.

The compound `COc1ccc(CC2c3ccc(OC)cc3CCC2NC(=O)Nc2cccc3cnccc23)cc1` (stereo not drawn) [Compound 70] returned a Ki of 5.55 nM.

In turn, `O=C(Nc1cccc2cnccc12)NC1CCc2cccc(Cl)c2C1Cc1ccccc1` (stereo not drawn) [Compound 62] returned an inhibitory constant (Ki) of 7.59 nM.

`COc1cc(CNC(=S)NC2CCc3ccccc3C2Cc2ccccc2)ccc1O` (stereo not drawn) [Compound 23] returned a Ki of 98.2 nM.
